Read-outs that look alike come from different tables or passages of the source.
What was measured:
Type in all cases: cell-based
[1] = test system: mantle cell lymphoma cell (Mino or JeKo-1); test: Antiproliferative effect, MTS cell viability assay
Outline: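 MTS read-out (formazan absorbance at 490 nm) after 72 h exposure of Mino cells to 0–1 μM compound (0.0001, 0.001, 0.01, 0.1, 1 μM). Palbociclib and abemaciclib served as positive controls.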

[2] = biological target: T1, CDK4 (Homo sapiens, UniProt P11802); test: CDK4 degradation (DC50, Dmax)
T1 construct: endogenous in cells
T1 sequence (P11802 whole entry): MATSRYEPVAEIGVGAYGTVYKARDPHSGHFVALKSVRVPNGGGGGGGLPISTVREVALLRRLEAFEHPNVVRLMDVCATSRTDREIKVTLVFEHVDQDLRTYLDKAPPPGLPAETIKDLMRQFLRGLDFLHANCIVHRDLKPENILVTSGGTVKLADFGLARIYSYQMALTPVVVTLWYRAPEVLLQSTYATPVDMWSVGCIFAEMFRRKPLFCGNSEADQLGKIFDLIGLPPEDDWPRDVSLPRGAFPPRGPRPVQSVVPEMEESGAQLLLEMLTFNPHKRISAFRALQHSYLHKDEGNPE

[3] = biological target: T2, CDK6 (Homo sapiens, UniProt Q00534); test: CDK6 degradation (DC50, Dmax)
T2 construct: endogenous in cells
T2 sequence (Q00534 whole entry): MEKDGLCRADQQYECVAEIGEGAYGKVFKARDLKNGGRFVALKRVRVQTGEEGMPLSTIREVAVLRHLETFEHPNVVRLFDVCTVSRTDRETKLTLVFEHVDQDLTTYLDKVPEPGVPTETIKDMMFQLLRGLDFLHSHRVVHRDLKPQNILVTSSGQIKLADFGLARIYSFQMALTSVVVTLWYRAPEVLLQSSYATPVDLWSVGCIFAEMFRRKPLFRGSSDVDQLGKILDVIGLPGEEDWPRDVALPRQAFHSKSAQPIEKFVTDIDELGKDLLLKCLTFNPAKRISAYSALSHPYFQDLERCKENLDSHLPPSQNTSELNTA

[4] = 72 h, mantle cell lymphoma cell (Mino or JeKo-1), MTS assay, read-out: IC50 (anti-proliferation)

Row | Structure (SMILES) | IC50 [1, 4] [nM] | DC50 [2] [nM] | Dmax [2] [%] | DC50 [3] [nM] | Dmax [3] [%] | IC50 ([1]; mantle cell lymphoma cell (Mino or JeKo-1); MTS assay, 72 h; read-out: IC50 (anti-proliferation)) [nM]
1 | CC(=O)c1c(C)c2cnc(Nc3ccc(N4CCN(C5CCN(C(=O)N6CCC(c7ccc8c(c7)CN(C7CCC(=O)NC7=O)C8=O)CC6)CC5)CC4)cn3)nc2n(C2CCCC2)c1=O (centres unmarked) [Compound 38, 3-(5-(1-(4-(4-(6-((6-acetyl-8-cyclopentyl-5-methyl-7-oxo-7,8-dihydropyrido[2,3-d]pyrimidin-2-yl)amino)pyridin-3-yl)piperazin-1-yl)piperidine-1-carbonyl)piperidin-4-yl)-1-oxoisoindolin-2-yl)piperidine-2,6-dione] | > 200 | > 200 | > 50 | > 200 | > 50 | 
2 | Cc1nc2c(F)cc(-c3nc(Nc4ccc(CN5CCN(C6CCN(c7ccc(C(=O)NC8CCC(=O)NC8=O)cc7)CC6)CC5)cn4)ncc3F)cc2n1C(C)C (centres unmarked) [Compound 150, N-(2,6-dioxopiperidin-3-yl)-4-(4-(4-((6-((5-fluoro-4-(4-fluoro-1-isopropyl-2-methyl-1H-benzo[d]imidazol-6-yl)pyrimidin-2-yl)amino)pyridin-3-yl)methyl)piperazin-1-yl)piperidin-1-yl)benzamide] | < 50 | < 50 | > 80 | < 50 | > 80 | 
3 | CC(=O)c1c(C)c2cnc(Nc3ccc(N4CCN(CC5CN(c6cccc7c6C(=O)N(C6CCC(=O)NC6=O)C7=O)C5)CC4)cn3)nc2n(C2CCCC2)c1=O (centres unmarked) [Compound 81, 4-(3-((4-(6-((6-acetyl-8-cyclopentyl-5-methyl-7-oxo-7,8-dihydropyrido[2,3-d]pyrimidin-2-yl)amino)pyridin-3-yl)piperazin-1-yl)methyl)azetidin-1-yl)-2-(2,6-dioxopiperidin-3-yl) isoindoline-1,3-dione] | < 50 | 50 to 200 | > 80 | 50 to 200 | > 80 | 
4 | Cc1nc2c(F)cc(-c3nc(Nc4ccc(CC5CCN(C6CN(c7ccc8c(c7)C(=O)N(C7CCC(=O)NC7=O)C8=O)C6)CC5)cn4)ncc3F)cc2n1C(C)C (centres unmarked) [Compound 148, 2-(2,6-dioxopiperidin-3-yl)-5-(3-(4-((6-((5-fluoro-4-(4-fluoro-1-isopropyl-2-methyl-1H-benzo[d]imidazol-6-yl)pyrimidin-2-yl)amino)pyridin-3-yl)methyl)piperidin-1-yl)azetidin-1-yl)isoindoline-1,3-dione] | 50 to 200 | < 50 | > 60 | 50 to 200 | > 60 | 
5 | Cc1nc2c(F)cc(-c3nc(Nc4ccc(CC5CCN(C(=O)C6CCN(c7ccc8c(c7)C(=O)N(C7CCC(=O)NC7=O)C8=O)CC6)CC5)cn4)ncc3F)cc2n1C(C)C (centres unmarked) [Compound 161, 2-(2,6-dioxopiperidin-3-yl)-5-(4-(4-((6-((5-fluoro-4-(4-fluoro-1-isopropyl-2-methyl-1H-benzo[d]imidazol-6-yl)pyrimidin-2-yl)amino)pyridin-3-yl)methyl)piperidine-1-carbonyl)piperidin-1-yl)isoindoline-1,3-dione] | 50 to 200 | 50 to 200 | > 60 | > 200 | > 60 | 
6 | CC(=O)c1c(C)c2cnc(Nc3ccc(N4CCN(CC5CCN(C(=O)N6CCN(c7ccc8c(c7)C(=O)N(C7CCC(=O)NC7=O)C8=O)CC6)CC5)CC4)cn3)nc2n(C2CCCC2)c1=O (centres unmarked) [Compound 31, 5-(4-(4-((4-(6-((6-acetyl-8-cyclopentyl-5-methyl-7-oxo-7,8-dihydropyrido[2,3-d]pyrimidin-2-yl)amino)pyridin-3-yl)piperazin-1-yl)methyl)piperidine-1-carbonyl)piperazin-1-yl)-2-(2,6-dioxopiperidin-3-yl)isoindoline-1,3-dione] |  | 50 to 200 | > 80 | 50 to 200 | > 80 | < 50
7 | CC(=O)c1c(C)c2cnc(Nc3ccc(C4CCN(CC5CN(c6ccc7c(c6)C(=O)N(C6CCC(=O)NC6=O)C7=O)C5)CC4)cn3)nc2n(C2CCCC2)c1=O (centres unmarked) [Compound 125, 5-(3-((4-(6-((6-acetyl-8-cyclopentyl-5-methyl-7-oxo-7,8-dihydropyrido[2,3-d]pyrimidin-2-yl)amino)pyridin-3-yl)piperidin-1-yl)methyl)azetidin-1-yl)-2-(2,6-dioxopiperidin-3-yl)isoindoline-1,3-dione] | < 50 | < 50 | > 80 | < 50 | > 80 | 
8 | Cc1nc2c(F)cc(-c3nc(Nc4ccc(CC5CCN(C(=O)C6CN(c7ccc8c(c7)C(=O)N(C7CCC(=O)NC7=O)C8=O)C6)CC5)cn4)ncc3F)cc2n1C(C)C (centres unmarked) [Compound 143, 2-(2,6-dioxopiperidin-3-yl)-5-(3-(4-((6-((5-fluoro-4-(4-fluoro-1-isopropyl-2-methyl-1H-benzo[d]imidazol-6-yl)pyrimidin-2-yl)amino)pyridin-3-yl)methyl)piperidine-1-carbonyl)azetidin-1-yl)isoindoline-1,3-dione] | < 50 | 50 to 200 | > 80 | 50 to 200 | > 60 | 

Second part, led by results:

Row | IC50 [1, 4] [nM] | DC50 [2] [nM] | Dmax [2] [%] | DC50 [3] [nM] | Dmax [3] [%] | Structure (SMILES) | IC50 ([1]; mantle cell lymphoma cell (Mino or JeKo-1); MTS assay, 72 h; read-out: IC50 (anti-proliferation)) [nM]
9 | 50 to 200 | 50 to 200 | > 50 | 50 to 200 | > 60 | CC(=O)c1c(C)c2cnc(Nc3ccc(N4CCN(CCC5CCN(c6ccc7c(c6)CN(C6CCC(=O)NC6=O)C7=O)CC5)CC4)cn3)nc2n(C2CCCC2)c1=O (centres unmarked) [Compound 70, 3-(5-(4-(2-(4-(6-((6-acetyl-8-cyclopentyl-5-methyl-7-oxo-7,8-dihydropyrido[2,3-d]pyrimidin-2-yl)amino)pyridin-3-yl)piperazin-1-yl)ethyl)piperidin-1-yl)-1-oxoisoindolin-2-yl) piperidine-2,6-dione] | 
10 | 50 to 200 | 50 to 200 | > 60 | 50 to 200 | > 60 | CC(=O)c1c(C)c2cnc(Nc3ccc(N4CCN(C(=O)N5CCC(CN6CCN(c7ccc8c(c7)C(=O)N(C7CCC(=O)NC7=O)C8=O)CC6)CC5)CC4)cn3)nc2n(C2CCCC2)c1=O (centres unmarked) [Compound 11] | 
11 | > 200 | > 200 | > 50 | > 200 | > 50 | CC(=O)c1c(C)c2cnc(Nc3ccc(N4CCN(C(=O)N5CCC(CCN6CCC(c7ccc8c(c7)CN(C7CCC(=O)NC7=O)C8=O)CC6)CC5)CC4)cn3)nc2n(C2CCCC2)c1=O (centres unmarked) [Compound 30, 3-(5-(1-(2-(1-(4-(6-((6-acetyl-8-cyclopentyl-5-methyl-7-oxo-7,8-dihydropyrido[2,3-d]pyrimidin-2-yl)amino)pyridin-3-yl)piperazine-1-carbonyl)piperidin-4-yl)ethyl)piperidin-4-yl)-1-oxoisoindolin-2-yl)piperidine-2,6-dione] | 
12 | 50 to 200 | 50 to 200 | > 60 | 50 to 200 | > 60 | CC(=O)c1c(C)c2cnc(Nc3ccc(N4CCN(CCN5CCN(C(=O)Nc6ccc7c(c6)CN(C6CCC(=O)NC6=O)C7=O)CC5)CC4)cn3)nc2n(C2CCCC2)c1=O (centres unmarked) [Compound 44] | 
13 | < 50 | 50 to 200 | > 80 | < 50 | > 80 | CC(=O)c1c(C)c2cnc(Nc3ccc(N4CCN(CC5CCN(c6ccc7c(c6)CN(C6CCC(=O)NC6=O)C7=O)CC5)CC4)cn3)nc2n(C2CCCC2)c1=O (centres unmarked) [Compound 66, 3-(5-(4-((4-(6-((6-acetyl-8-cyclopentyl-5-methyl-7-oxo-7,8-dihydropyrido[2,3-d]pyrimidin-2-yl)amino)pyridin-3-yl)piperazin-1-yl)methyl)piperidin-1-yl)-1-oxoisoindolin-2-yl)piperidine-2,6-dione] | 

— patent publication US20230295118A1 (EnhancedBio Inc., priority 2022, published 2023)
